{"source": "patent US6337333B1", "about": "“Method of treating autoimmune disease with fludarabine-5′-monophosphate” (priority 1992, dated 2002)", "key": {"[1]": {"test_system": "IgM-RF and IgM production", "details": "therapeutic concentrations of drug; cited from earlier work"}, "T lymphocytes": {"test_system": "T lymphocytes", "assay": "T lymphocyte proliferative response to mitogen after 18 hr drug pretreatment (3H-thymidine)", "format": "cell-based, human", "details": "18 hr pretreatment, FIG. 1A", "procedure": "(§1) In FIG. 1, freshly isolated PBMC were enriched for T and B lymphocytes using Nylon Wool (see Materials and Methods, Example A). The enriched lymphocyte subpopulations were then incubated for 18 hrs at 37° C. with various concentrations of drug. At the end of the pretreatment period, the cell samples were washed, adjusted to 2×10^5 viable cells/ml, and cultured at 1×10^4/well in flat (B cells) or round (T cells) bottomed 96 well microtiter plates in […]. The T cells were incubated for 3 days with PHA-P ([…]) or Con A (5 μg/ml) and the B cells were cultured for 6 days with either PWM (2 μg/ml) or SAC ({fraction (1/60,000)}). 1 μCi of ^3H-thymidine was added per well during the last 18 hr of culture. The wells were then harvested onto glass fiber filters, and counted in 7 ml of Cytoscint (ICN) on the LKB 1219 Rackbeta scintillation counter. The results are expressed as the mean cpm of triplicate wells.\n(§2) Peripheral blood mononuclear cells obtained from normal donors as packed leukocyte preparations were enriched for T and B lymphocytes and pretreated with drug for 18 hrs prior to mitogen stimulation.\n(§3) Peripheral blood mononuclear cells enriched for either T or B lymphocytes were incubated for 18 hrs in complete S-10 medium at 37° C. in 12×75 mm culture tubes at 5×10^5 cells/ml. The cells were then washed in S-10 and cultured in triplicate for either 3 (T lymphocytes) or 6 (B lymphocytes) days at 2.5×10^4/well in round bottom 96-well microtiter plates in S-10 medium at 37° C. and a 5% CO2 humidified atmosphere. The wells were pulsed with 1 μCi 3H-thymidine for the last 18 hr of culture, harvested onto glass fiber filters, and counted with 7 ml Cytoscint with a LKB Rackbeta scintillation counter. The results are reported as “percent Suppression”:\n(§4) % Suppression={1−(mean cpm exp./mean cpm stim control)}×100"}, "B lymphocytes": {"test_system": "B lymphocytes", "assay": "B lymphocyte proliferative response to mitogen after 18 hr drug pretreatment (3H-thymidine)", "format": "cell-based, human", "details": "18 hr pretreatment, FIG. 1B", "procedure": "as §1, §2, §3, §4"}, "[2]": {"test_system": "Type II collagen-induced arthritis", "details": "cited from earlier work"}}, "data": [{"compound": "O=C([O-])c1ccccc1Nc1cc(Cl)ccc1C(=O)[O-].[Na+].[Na+]", "note": "[lobenzarit, disodium 4-chloro-2,2′-iminodibenzoate]", "values": [{"measurement": "production of IgM", "setting": "[1]", "result": "suppressed"}, {"measurement": "production of IgM-RF", "setting": "[1]", "result": "suppressed"}]}, {"compound": "Nc1nc(F)nc2c1ncn2[C@@H]1O[C@H](CO)[C@@H](O)[C@@H]1O", "note": "[F]", "values": [{"measurement": "suppression of T lymphocyte's ability to respond to mitogen", "setting": "T lymphocytes", "result": "suppress"}, {"measurement": "suppression of B lymphocyte's ability to respond to mitogen", "setting": "B lymphocytes", "result": "suppress"}]}, {"compound": "CC(C)(S)[C@@H](N)C(=O)O", "note": "[D-penicillamine]", "values": [{"measurement": "effect on disease", "setting": "[2]", "result": "early onset of the disease"}]}]}
